PMC6534296, “Structural analysis of Cytochrome P450 BM3 mutant M11 in complex with dithiothreitol” (PLoS ONE, 2019)

Target: T1, Cytochrome P450 BM3 (CYP102A1) mutant M11 (Priestia megaterium, UniProt P14779, E144G/E268V/E65G/F82I/F88V/G416S/H286Y/L189Q/R48L/Y199C)
T1 construct: heme domain (stop codon introduced after residue 473)
Experiment: X-ray crystal structure ([…] Å) and UV/Vis difference spectral titration
Format: binding

T1 sequence (P14779 1-474 R48L/E65G/F82I/F88V/E144G/L189Q/Y199C/E268V/H286Y/G416S): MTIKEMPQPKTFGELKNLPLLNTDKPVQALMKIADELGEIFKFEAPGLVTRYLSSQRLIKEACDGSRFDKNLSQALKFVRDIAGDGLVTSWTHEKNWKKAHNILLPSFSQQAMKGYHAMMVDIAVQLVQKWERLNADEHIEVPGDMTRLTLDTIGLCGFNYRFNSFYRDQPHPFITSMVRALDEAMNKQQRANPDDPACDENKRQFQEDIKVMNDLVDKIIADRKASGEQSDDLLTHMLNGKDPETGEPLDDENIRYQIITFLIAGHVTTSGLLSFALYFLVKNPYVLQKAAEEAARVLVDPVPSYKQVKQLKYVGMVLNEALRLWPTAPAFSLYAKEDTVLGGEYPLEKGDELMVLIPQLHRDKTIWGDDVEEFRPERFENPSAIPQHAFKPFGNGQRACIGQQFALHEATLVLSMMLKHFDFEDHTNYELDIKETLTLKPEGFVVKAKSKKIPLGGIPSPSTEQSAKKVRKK

Work on `O[C@@H](CS)[C@@H](O)CS` (racemic) [DTT, dithiothreitol] yielded a Kd of 56.8 ± 1.3 µM.
